The text below walks through data of patent US20260240763A1, “Inhalable Serotonin Receptor Agonist Formulations” (Pinata Holdings Inc., priority 2022, published 2026).

This data set relates to generalized anxiety and/or post-traumatic stress disorder (PTSD). The data set can be described thus: Inhaled dry powder given to subjects for generalized anxiety and/or PTSD. It counts as in vivo, human. As to conditions: encapsulated by HPMCAS, inhaler. How it is done: Three male subjects and one subject were administered doses of 5 mg, 10 mg, and 15 mg of psilocybin. Each individual dosage level was administered about three weeks apart for the treatment of generalized anxiety and/or post-traumatic stress disorder (PTSD). In a separate experiment, the subjects were administered doses of 1 mg, 5 mg, and 10 mg of 4-AoC-DMT (O-Acetylpsilocin). Each individual dosage level was administered about three weeks apart for the treatment of generalized anxiety and/or post-traumatic stress disorder (PTSD). The dry powder pharmaceutical compositions comprised psilocybin or 4-AoC-DMT encapsulated by HPMCAS using the methods described herein (e.g., spay drying). The encapsulated dry powder was administered with an inhaler.

As to `CC(=O)Oc1cccc2[nH]cc(CCN(C)C)c12` [4-AoC-DMT, 4-Acetoxy-N,N-dimethyltryptamine], the adverse effects noted result (4-AoC-DMT 1 mg and 5 mg, four subjects) is on record as “No adverse effects”; the adverse effects noted result (4-AoC-DMT 10 mg, indicated by 3 male patients and 1 patient) is reported as “too much”. For the same compound, the “effect on anxiety in the subjects” value (doses of 1 mg and 5 mg of 4-AoC-DMT, each about three weeks apart, three male subjects and one subject) was “reduced anxiety”.

On to `CN(C)CCc1c[nH]c2cccc(OP(=O)(O)O)c12` [psilocybin, 4-phosphoryloxy-N,N-dimethyltryptamine], for which the adverse effects noted entry (psilocybin 5 mg, 10 mg and 15 mg, four subjects) is “No adverse effects”.
